Laboratory results taken from patent US20260125359A1, “HETEROARYL COMPOUNDS AS MULTI-TARGET PROTEIN KINASE INHIBITORS” (FUJIAN HAIXI PHARMACEUTICALS CO., LTD., priority 2023, published 2026).

How the values were obtained:
PDGFR-α = PDGFR-α (Homo sapiens, UniProt P16234); assay: PDGFR-α in vitro kinase activity assay (HTRF kinEASE TK); type: biochemical; conditions: for inhibition at 0.01 µM: compound 10 nM, read-out: PDGFRα inhibition rate, 10 nM; for inhibition at 0.1 µM: compound 100 nM, read-out: PDGFRα inhibition rate, 100 nM
PDGFR-α, sequence (P16234 24-1089): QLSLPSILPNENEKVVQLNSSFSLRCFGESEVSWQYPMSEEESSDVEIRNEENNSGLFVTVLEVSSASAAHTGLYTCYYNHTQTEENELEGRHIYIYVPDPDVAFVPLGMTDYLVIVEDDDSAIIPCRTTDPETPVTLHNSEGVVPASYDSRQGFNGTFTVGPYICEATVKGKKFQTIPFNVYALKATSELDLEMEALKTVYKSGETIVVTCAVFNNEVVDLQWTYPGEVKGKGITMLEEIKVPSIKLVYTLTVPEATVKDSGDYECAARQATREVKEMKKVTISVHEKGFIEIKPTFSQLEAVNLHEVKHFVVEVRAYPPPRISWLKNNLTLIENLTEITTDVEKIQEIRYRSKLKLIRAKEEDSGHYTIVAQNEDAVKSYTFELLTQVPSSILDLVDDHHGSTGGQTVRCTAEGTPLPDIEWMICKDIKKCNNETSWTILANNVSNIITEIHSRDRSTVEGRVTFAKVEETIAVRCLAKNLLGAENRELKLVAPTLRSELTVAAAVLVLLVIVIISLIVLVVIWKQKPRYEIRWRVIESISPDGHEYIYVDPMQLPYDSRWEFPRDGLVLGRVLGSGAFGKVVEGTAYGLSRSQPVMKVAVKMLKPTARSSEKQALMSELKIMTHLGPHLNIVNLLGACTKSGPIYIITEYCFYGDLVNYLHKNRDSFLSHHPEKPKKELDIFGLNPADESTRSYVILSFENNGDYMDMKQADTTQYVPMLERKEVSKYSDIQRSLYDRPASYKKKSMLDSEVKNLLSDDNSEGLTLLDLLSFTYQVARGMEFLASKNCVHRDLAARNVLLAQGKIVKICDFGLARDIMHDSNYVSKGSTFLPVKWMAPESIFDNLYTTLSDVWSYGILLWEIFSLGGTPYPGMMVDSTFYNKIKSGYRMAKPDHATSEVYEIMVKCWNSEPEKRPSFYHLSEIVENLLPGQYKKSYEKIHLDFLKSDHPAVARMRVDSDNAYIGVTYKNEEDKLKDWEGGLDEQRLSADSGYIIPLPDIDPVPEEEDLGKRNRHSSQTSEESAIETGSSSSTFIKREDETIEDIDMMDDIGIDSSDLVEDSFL
Source text: CSF-1R, PDGFR-α, KDR (VEGFR2) and KIT in vitro Kinase Activity Assay:
• ENVISION (Perkinelmer, 2104) • White 384-well MicroPlate (Cat #264706, Nunc) • HTRF kinEASE TK kit main reagents (Cat #62TKOPEC, Cisbio) • TK-biotin substrate • Streptavidin-XL665 • TK Antibody-Cryptate • 5× Enzymatic buffer (5×KB) • Staphylococcal enterotoxin B (SEB) • HTRF Detection buffer • CSF-1R (Cat #PV3249, Invitrogen) • PDGFR-α (Cat #PV3811, Invitrogen) • KDR (Cat #PV3660, Invitrogen) • KIT (Cat #08-156, Carna) • ATP 10 mM (Cat #PV3227, Invitrogen) • DTT 1 M (Cat #D5545, Sigma) • MgCl2 1 M (Cat #M8266, Sigma) • MnCl2 1 M (Cat #244589, Sigma)
Dilute Substrate-TK and ATP to 5× of the reaction concentration using 1× Kinase Buffer.
Prepare the 5× enzyme working solution using 1× Kinase Buffer.
Prepare the 4×Sa-XL665 working solution using Detection Buffer.
Dilute TK-Ab-Cryptate 100 times using Detection Buffer to prepare the working solution.
After all reagents were prepared according to the methods described above, except for the enzyme, they were equilibrated to room temperature before starting the sample addition. • a) First, 2.5% DMSO solutions were prepared separately using the pre-prepared 1× kinase buffer (DMSO concentrations that were too high could affect the reaction, so the final concentration of DMSO was controlled at 1%). Then, the corresponding 2.5% DMSO solution for the enzyme was used to dilute the test compounds. Compounds were screened with two concentrations of 100 nM and 10 nM. Except for the control wells, 4 μL of the diluted test compound solution was added to the reaction wells, and 4 μL of the pre-prepared 2.5% DMSO solution was added to the control wells. • b) 2 μL of the pre-prepared TK-biotin substrate solution at the corresponding concentration for the kinase was added to all reaction wells. • c) 2 μL of the pre-prepared enzyme solution at the corresponding concentration was added to all reaction wells except the negative control wells. For the negative control wells, 2 μL of 1× kinase buffer corresponding to the enzyme was added to make up the volume. The plate was sealed with sealing film, mixed gently, and incubated at room temperature for 10 min to allow the compounds to fully interact with the enzyme. • d) 2 μL of the ATP solution at the corresponding concentration for the enzyme was added to all reaction wells to initiate the kinase reaction. ATP concentrations and reaction times for enzyme screening are shown in Table 26 • e) Five minutes before the end of the kinase reaction, the detection solution was prepared. The detection buffer from the kit was used to prepare detection solutions for Streptavidin-XL665 and TK antibody europium cryptate (1:100) at the appropriate concentrations for the two enzymes. • f) After the kinase reaction was completed, 5 μL of the diluted Streptavidin-XL665 solution was added to all reaction wells. After mixing, the diluted TK antibody europium cryptate detection solution was immediately added. • g) The plate was sealed and mixed, incubated at room temperature for 1 hour, and the fluorescence signal was detected using the ENVISION (PerkinElmer) instrument (excitation at 320 nm, emission at 665 nm and 615 nm). The inhibition rate for each well was calculated based on the full-activity control wells and background signal wells, and the average value of the replicates was taken.

DDR1 = DDR1 (Homo sapiens, UniProt Q08345); assay: DDR1 in vitro kinase activity assay (LanthaScreen Eu-anti-GST antibody / Kinase Tracer 178); type: binding; conditions: for inhibition at 0.01 µM: compound 10 nM, read-out: DDR1 inhibition rate, 10 nM; for inhibition at 0.1 µM: compound 100 nM, read-out: DDR1 inhibition rate, 100 nM
DDR1, sequence (Q08345 19-913): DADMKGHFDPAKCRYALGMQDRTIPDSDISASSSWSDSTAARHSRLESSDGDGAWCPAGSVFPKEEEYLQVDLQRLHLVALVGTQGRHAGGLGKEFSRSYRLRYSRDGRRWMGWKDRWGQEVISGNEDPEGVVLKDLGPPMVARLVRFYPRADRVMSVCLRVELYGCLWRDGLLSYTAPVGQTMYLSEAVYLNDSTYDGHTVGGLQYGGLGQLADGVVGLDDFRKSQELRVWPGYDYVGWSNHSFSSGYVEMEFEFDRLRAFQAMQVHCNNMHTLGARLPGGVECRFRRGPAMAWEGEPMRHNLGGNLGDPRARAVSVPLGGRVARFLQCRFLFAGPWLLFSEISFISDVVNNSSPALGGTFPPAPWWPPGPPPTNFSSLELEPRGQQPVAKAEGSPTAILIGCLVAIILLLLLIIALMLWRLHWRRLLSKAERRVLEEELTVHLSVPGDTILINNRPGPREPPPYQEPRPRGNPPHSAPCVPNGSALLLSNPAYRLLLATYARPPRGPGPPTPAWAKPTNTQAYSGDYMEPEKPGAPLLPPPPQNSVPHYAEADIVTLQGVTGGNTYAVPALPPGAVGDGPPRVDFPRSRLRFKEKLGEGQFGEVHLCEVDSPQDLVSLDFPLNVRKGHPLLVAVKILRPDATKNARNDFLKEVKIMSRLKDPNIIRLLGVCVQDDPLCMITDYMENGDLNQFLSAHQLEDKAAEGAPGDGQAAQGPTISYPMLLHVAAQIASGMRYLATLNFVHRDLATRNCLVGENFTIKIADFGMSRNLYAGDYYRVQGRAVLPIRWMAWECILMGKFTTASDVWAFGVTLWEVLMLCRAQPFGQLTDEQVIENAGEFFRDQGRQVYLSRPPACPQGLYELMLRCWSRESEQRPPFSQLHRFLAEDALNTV
Protocol: DDR1 in vitro Kinase Activity Assay:
• ENVISION (Perkinelmer, 2104) • White 384-well MicroPlate (Cat #264706, Nunc) • DDR1 (Cat #PV6047, Invitrogen) • 5× Kinase Buffer A (Cat #PV3189, Invitrogen) • Kinase Tracer 178 (Cat #PV5593, Invitrogen) • LanthaScreen® Eu-anti-GST Antibody (Cat #PV5594, Invitrogen)
The compounds to be tested were tested at two concentrations of 100 nM and 10 nM.
Kinase/Antibody Mixtures Preparation: Dilute Kinase/Antibody Mixtures with 1× Kinase Buffer to form 3× working solutions with final concentrations of 5 nM kinase and 2 nM Eu-Anti-GST Antibody, respectively.
Kinase Tracer 178 Preparation: Dilute Kinase Tracer 178 with 1× Kinase Buffer to make a 3× working solution with a final concentration of 10 nM.
After all reagents were prepared according to the methods described above, except for the enzyme, they were equilibrated to room temperature before starting the sample addition. • a) First, 3% DMSO solutions were prepared separately using the pre-prepared 1× kinase buffer (DMSO concentrations that were too high could affect the reaction, so the final concentration of DMSO was controlled at 1%). Then, the corresponding 3% DMSO solution for the enzyme was used to dilute the test compounds. Compounds were screened with two concentrations of 100 nM and 10 nM. Except for the control wells, 5 μL of the diluted test compound solution was added to the reaction wells, and 5 μL of the pre-prepared 3% DMSO solution was added to the control wells. • b) 5 μL of the pre-prepared Kinase/Antibody mixtures was added to all reaction wells except the negative control wells. For the negative control wells, 5 μL of 1× kinase buffer corresponding to the enzyme was added to make up the volume. • c) 5 μL of the pre-prepared Kinase Tracer 178 solution was added to all reaction wells. • d) The plate was sealed and mixed, incubated at room temperature for 1 hour, and the fluorescence signal was detected using the ENVISION (PerkinElmer) instrument (excitation at 340 nm, emission at 665 nm and 615 nm). The inhibition rate for each well was calculated based on the full-activity control wells and background signal wells, and the average value of the replicates was taken.

Structure (SMILES) | inhibition at 0.01 µM (PDGFR-α) [%] | inhibition at 0.1 µM (PDGFR-α) [%] | inhibition at 0.01 µM (DDR1) [%] | inhibition at 0.1 µM (DDR1) [%]
Cn1cc(-c2cnc(N)c(O[C@H]3CCc4c(C(=O)Nc5cccc(C6CC6)c5)cccc43)c2)cn1 [Compound 4, (S)-1-((2-amino-5-(1-methyl-1H-pyrazol-4-yl)pyridin-3-yl)oxy)-N-(3-cyclopropylphenyl)-2,3-dihydro-1H-indene-4-carboxamide] | 90.9 | 96.8 | 88.6 | 98.2
Cc1cccc(NC(=O)c2cccc3c2CC[C@@H]3Nc2cncc(-c3cnn(C)c3)c2)c1 [Compound 13, (S)-1-((5-(1-methyl-1H-pyrazol-4-yl)pyridin-3-yl)amino)-N-(m-tolyl)-2,3-dihydro-1H-indene-4-carboxamide] | 78.7 | 99.1 | 90.2 | 95.1
Cn1cc(-c2cncc(N[C@H]3CCc4c(C(=O)Nc5cncc(Cl)c5)cccc43)c2)cn1 [Compound 14aa, (S)—N-(5-chloropyridin-3-yl)-1-((5-(1-methyl-1H-pyrazol-4-yl)pyridin-3-yl)amino)-2,3-dihydro-1H-indene-4-carboxamide] | 72.7 | 98.7 | 93.2 | 104
Cn1cc(-c2cncc(N[C@H]3CCc4c(C(=O)Nc5ccc(C(F)(F)F)nc5)cccc43)c2)cn1 [Compound 14ah] | 67.6 | 99.4 | 37.9 | 85.6
CN1CCc2ccc(NC(=O)c3cccc4c3CC[C@@H]4Nc3cncc(-c4cnn(C)c4)c3)cc2C1 [Compound 14ap] | 72.8 | 98.8 | 75.8 | 100
Cc1cncc(NC(=O)c2cccc3c2CC[C@@H]3Nc2cncc(-c3cnn(C)c3)c2)c1 [Compound 14as] | 91 | 101 | 94.7 | 103
CN1CCc2nc(NC(=O)c3cccc4c3CC[C@@H]4Nc3cncc(-c4cnn(C)c4)c3)sc2C1 [Compound 14ba] | 75.5 | 100 | 32.4 | 61.4
Cc1cccc(C(=O)Nc2cccc3c2CC[C@@H]3Oc2cncc(-c3cnn(C)c3)c2)c1 [Compound 15, (S)-3-methyl-N-(1-((5-(1-methyl-1H-pyrazol-4-yl)pyridin-3-yl)oxy)-2,3-dihydro-1H-inden-4-yl)benzamide] | 39.6 | 64 | 15.9 | 88
Cn1cc(-c2cncc(O[C@H]3CCc4c(C(=O)Nc5cncc(Cl)c5)cccc43)c2)cn1 [Compound 19a, (S)—N-(5-chloropyridin-3-yl)-1-((5-(1-methyl-1H-pyrazol-4-yl)pyridin-3-yl)oxy)-2,3-dihydro-1H-indene-4-carboxamide] | 40.5 | 86.2 | 69.4 | 102
Cn1cc(-c2cncc(O[C@H]3CCc4c(C(=O)Nc5cccc(C6CC6)c5)cccc43)c2)cn1 [Compound 19b] | 22.9 | 97.1 | 84 | 105
CN1CCc2nc(NC(=O)c3cccc4c3CC[C@@H]4Oc3cncc(-c4cnn(C)c4)c3)sc2C1 [Compound 19f] | 14.5 | 67.2 | 23.1 | 53.5
CN(C)Cc1cncc(NC(=O)c2cccc3c2CC[C@@H]3Oc2cncc(-c3cnn(C)c3)c2)c1 [Compound 19h] | 3.8 | 68.3 | 65.3 | 97.1
Cc1cncc(NC(=O)c2cccc3c2CC[C@@H]3Oc2cncc(-c3cnn(C)c3)c2)c1 [Compound 19j] | 23.5 | 79.7 | 86.1 | 96.7
Cc1cc(NC(=O)c2cccc3c2CC[C@@H]3Oc2cncc(-c3cnn(C)c3)c2)cc(C)n1 [Compound 19k, (S)—N-(2,6-dimethylpyridin-4-yl)-1-((5-(1-methyl-1H-pyrazol-4-yl)pyridin-3-yl)oxy)-2,3-dihydro-1H-indene-4-carboxamide] | 13.9 | 74.3 | 81.4 | 89.9
CN(c1cncc(-c2cnn(C)c2)c1)[C@H]1CCc2c(C(=O)Nc3cncc(Cl)c3)cccc21 [Compound 21, (S)—N-(5-chloropyridin-3-yl)-1-(methyl (5-(1-methyl-1H-pyrazol-4-yl)pyridin-3-yl)amino)-2,3-dihydro-1H-indene-4-carboxamide] | 7.7 | 38.7 | 29.7 | 88
CN(c1cncc(-c2cnn(C)c2)c1)[C@H]1CCc2c(C(=O)Nc3cccc(C4CC4)c3)cccc21 [Compound 22a, (S)—N-(3-cyclopropylphenyl)-1-(methyl (5-(1-methyl-1H-pyrazol-4-yl)pyridin-3-yl)amino)-2,3-dihydro-1H-indene-4-carboxamide] | 62.9 | 60.5 | 32.4 | 86
Cn1cc(-c2cncc(N[C@H]3CCc4c(C(=O)Nc5nn(C)c6ccccc56)cccc43)n2)cn1 [Compound 27g, (S)—N-(1-methyl-1H-indazol-3-yl)-1-((6-(1-methyl-1H-pyrazol-4-yl)pyrazin-2-yl)amino)-2,3-dihydro-1H-indene-4-carboxamide] | 94.7 | 98.9 | 92.1 | 101
Cn1cc(-c2cncc(N[C@H]3CCc4c(Nc5cc(C(C)(C)C)on5)cccc43)c2)cn1 [Compound 41, (S)—N^4-(5-(tert-butyl)isoxazol-3-yl)-N^1-(5-(1-methyl-1H-pyrazol-4-yl)pyridin-3-yl)-2,3-dihydro-1H-indene-1,4-diamine] | 55.5 | 100 | 20.2 | 78.2
Cn1cc(-c2cncc(N[C@H]3CCc4c(Nc5noc(C(C)(C)C)n5)cccc43)c2)cn1 [Compound 42o] | 15.4 | 57.8 | 4.1 | 67.6
